The conditions of series [1]: orchiectomised male rats.
For series [2] the following is noted: mice; compared with testosterone administered by the same route; cited from earlier work.

For the compound `C[C@]12CC[C@H]3[C@@H](CCC4=CC(=O)CC[C@@]43C)[C@@H]1CC[C@@H]2O[C@@H]1O[C@H](CO)[C@@H](O)[C@H](O)[C@H]1O` [testosterone glucoside, Testosterone-17-β-1′-β′-D-glucopyranose], the “bioavailability, oral” value in series [1] (1.56 mg orally daily for 6 days, serum testosterone 4 hours after final dose) is “bioavailable when given orally”. Moreover, the metabolism to testosterone entry in series [1] (oral or intramuscular, daily for 6 days) is reported as “readily metabolised to testosterone”. Also, the “biological activity in vivo” value in series [2] was “very little activity in vivo, and certainly less than testosterone”.
